In patent US20250034147A1, “MDM2 DEGRADERS AND USES THEREOF” (Kymera Therapeutics, Inc., priority 2021, published 2025):

Assays:
HiBiT-tagged MDM2 = target: T1, HiBiT-tagged MDM2 (Homo sapiens, UniProt Q00987); assay: MDM2 HiBit HEK293T degradation; format: cell-based; conditions: HEK293T cells stably expressing C-terminally HiBiT-tagged MDM2; 4 h; read-out: MDM2 HiBit HEK293T degradation 4 h: Average external-Abs DC50
T1 construct: expressed in transfected cells
Method: HEK293T cells were grown overnight to 70-80% confluency in a 6-well plate in complete media (DMEM 10% FBS) in a 37° C. incubator with 5% CO2. Cells were transfected with 1 micrograms of C- or N-terminally HiBiT-tagged MDM2 constructs using Fugene 6 transfection reagent (Promega) as per manufacturer protocol. After overnight incubation at 37° C., growth media within the wells was replaced with selection media (DMEM+10% FBS+1 microgram/ml final concentration of Puromycin). Puromycin (selection antibiotic) concentrations required for complete cell kill were determined previously. Cells were monitored for the next 48h-96h to select for positively transfected cells. Surviving colonies were pooled and expanded in selection media. Expanded pools of HEK293T cells stably expressing C- and N-terminally HiBiT-tagged MDM2, were characterized using a MDM2 tool degrader and HaloPROTAC3 as positive control. HEK293T cells expressing C-terminally HiBiT-tagged MDM2 were subsequently used for assessment of degradation potencies for MDM2 degraders.
The letter codes for MDM2 degradation potency (DC50) include: A (<10 nM), B […], C (>100-1000 nM), and D (>1000 nM).

RS411 cells = assay: Cell Viability CTG Assay; format: cell-based; conditions: Homo sapiens, RS4-11, CellTiter Glo (CTG) cell viability, read-out: Average external-IC50
Method: Compounds or DMSO 60 nL were stamped to the cell plate as the platemap. RS411 cells were centrifuged at 800 rpm for 5 min, suspended with culture medium, and counted with Countess (Invitrogen). The cell density was adjusted to the recommend information. 30 μL of cell solution (1000 cells/well) was added to the assay plate as the platemap and 30 μL of media was added to column 2 and column 23 as the platemap. The plate was spun down briefly. The final concentration of the compounds started at 10 μM (3 fold dilution and 11 doses) and final DMSO concentration was 0.2%. The plate was spun down briefly and incubated at 37° C., 5% CO2 for 1 day. […] 30 μL CellTiter Glo reagent was added to each well and the plate was centrifuged at 1000 rpm for 30 sec. The plate was shaken for 1 min and centrifuged at 1000 rpm for 30 sec. The plate was incubated at RT for 10 min to stabilize the luminescent signal and the luminescence was read by EnVision.
The letter codes for IC50 indicate the concentration of compound required to affect 50% of cells: A (<0.005 μM), B (0.005-0.05 μM), C (0.05-0.5 μM), and D (>0.5 μM).

T1 sequence (Q00987 whole entry): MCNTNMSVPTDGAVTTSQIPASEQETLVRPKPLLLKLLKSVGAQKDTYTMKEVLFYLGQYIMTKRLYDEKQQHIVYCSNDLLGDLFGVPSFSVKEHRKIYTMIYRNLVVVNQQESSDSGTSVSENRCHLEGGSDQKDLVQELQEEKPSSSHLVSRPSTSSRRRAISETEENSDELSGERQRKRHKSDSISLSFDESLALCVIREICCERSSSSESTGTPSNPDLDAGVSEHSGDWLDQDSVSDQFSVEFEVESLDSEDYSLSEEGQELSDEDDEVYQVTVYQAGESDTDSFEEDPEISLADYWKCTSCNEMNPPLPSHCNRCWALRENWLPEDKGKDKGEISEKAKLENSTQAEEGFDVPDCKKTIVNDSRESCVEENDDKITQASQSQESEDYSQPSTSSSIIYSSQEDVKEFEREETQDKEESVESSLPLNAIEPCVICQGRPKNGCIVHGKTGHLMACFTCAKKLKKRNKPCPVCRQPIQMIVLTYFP

SMILES | DC50 (HiBiT-tagged MDM2) [nM] | IC50 (RS411 cells) [nM]
CCOc1ccc2c(c1)NC(=O)C21[C@@H](c2cccc(Cl)c2F)[C@H](C(=O)N[C@H]2CC[C@H](C(=O)C3CCN(CCCc4ccc5c(c4)n(C)c(=O)n5C4CCC(=O)NC4=O)CC3)CC2)NC12CCCCC2 (stereo partly shown) [I-96] | < 10 | > 500
Cn1c(=O)n(C2CCC(=O)NC2=O)c2ccc([C@@H]3CCN(C[C@H]4CC[C@H](NC(=O)[C@@H]5NC6(CCCCC6)[C@@]6(C(=O)Nc7cc(Cl)ccc76)[C@H]5c5cccc(Cl)c5F)CC4)C[C@@H]3F)cc21 (stereo partly shown) [I-85] | < 10 | 5 to 50
O=C(O)Cn1c(=O)n(C2CCC(=O)NC2=O)c2ccc(C3CCN(C(=O)[C@H]4CC[C@H](NC(=O)[C@@H]5NC6(CCCCC6)[C@@]6(C(=O)Nc7cc(Cl)ccc76)[C@H]5c5cccc(Cl)c5F)CC4)CC3)cc21 (stereo partly shown) [I-99] | 100 to 1000 | 5 to 50
COc1cc2c(cc1OC(C)C)[C@H](c1ccc(Cl)cc1)N(c1ccc(N(C)C[C@H]3CC[C@H](N4CCN(c5ccc6c(c5)n(C)c(=O)n6C5CCC(=O)NC5=O)CC4)CC3)cc1)C(=O)C2 (stereo partly drawn) [I-71, 3-[5-[4-[4-[[4-[(1S)-1-(4-chlorophenyl)-7-isopropoxy-6-methoxy-3-oxo-1,4-dihydroisoquinolin-2-yl]-N-methyl-anilino]methyl]cyclohexyl]piperazin-1-yl]-3-methyl-2-oxo-benzimidazol-1-yl]piperidine-2,6-dione] | < 10 | < 5
Cn1c(=O)n(C2CCC(=O)NC2=O)c2ccc(C3CCN(C(=O)CN4CCC(NC(=O)[C@@H]5NC6(CCCCC6)[C@@]6(C(=O)Nc7cc(Cl)ccc76)[C@H]5c5cccc(Cl)c5F)CC4)CC3)cc21 (stereo partly shown) [I-27] | < 10 | < 5
O=C1CCN(c2cnc3cc(C4CCN(C(=O)[C@H]5CC[C@H](NC(=O)[C@@H]6NC7(CCCCC7)[C@@]7(C(=O)Nc8cc(Cl)ccc87)[C@H]6c6cccc(Cl)c6F)CC5)CC4)ccn23)C(=O)N1 [I-42] | < 10 | < 5
Cn1c(=O)n([C@H]2CCC(=O)NC2=O)c2ccc(C3CCN(C(=O)[C@H]4CC[C@H](NC(=O)[C@@H]5NC6(CCCCC6)[C@@]6(C(=O)Nc7cc(Cl)ccc76)[C@H]5c5cccc(Cl)c5F)CC4)CC3)cc21 (single isomer, unassigned) [I-103] | < 10 | < 5
Cn1c(=O)n(C2CCC(=O)NC2=O)c2ccc(C3CCN(C(=O)[C@@H]4CC[C@@H](NC(=O)[C@@H]5NC6(CCCCC6)[C@@]6(C(=O)Nc7cc(Cl)ccc76)[C@H]5c5cccc(Cl)c5F)CO4)CC3)cc21 (stereo partly shown) [I-37] | < 10 | < 5
Cc1ccc2c(c1)NC(=O)[C@]21[C@@H](c2cccc(C)c2F)[C@H](C(=O)N[C@H]2CC[C@H](C(=O)N3CCN(CCCc4ccc5c(c4)n(C)c(=O)n5C4CCC(=O)NC4=O)CC3)CC2)NC12CCCCC2 (stereo partly shown) [I-55] | 10 to 100 | > 500
Cn1c(=O)n(C2CCC(=O)NC2=O)c2ccc(C#CCC3(C(=O)O)CCN(C(=O)[C@H]4CC[C@H](NC(=O)[C@@H]5NC6(CCCCC6)[C@@]6(C(=O)Nc7cc(Cl)ccc76)[C@H]5c5cccc(Cl)c5F)CC4)CC3)cc21 (stereo partly shown) [I-44] | 10 to 100 | < 5
CN1C(C(=O)N[C@H]2CC[C@H](C(=O)N3CCC4(CC3)CN(c3ccc5c(c3)n(C)c(=O)n5C3CCC(=O)NC3=O)C4)CC2)[C@H](c2cccc(Cl)c2F)[C@]2(C(=O)Nc3cc(Cl)ccc32)C12CCCCC2 (stereo partly shown) [I-91] | < 10 | 5 to 50
Cn1c(=O)n(C2CCC(=O)NC2=O)c2ccc(CN3CCN(C[C@H]4CC[C@H](NC(=O)[C@@H]5NC6(CCCCC6)[C@@]6(C(=O)Nc7cc(Cl)ccc76)[C@H]5c5cccc(Cl)c5F)CC4)CC3)cc21 (stereo partly shown) [I-69] | < 10 | 5 to 50
COc1cc2c(cc1OC(C)C)[C@H](c1ccc(Cl)cc1)N(c1ccc(N(C)CCC3CCN(CCCCC#Cc4ccn5c(N6CCC(=O)NC6=O)cnc5c4)CC3)cc1)C(=O)C2 [I-51] | 10 to 100 | 50 to 500
COc1cc2c(cc1OC(C)C)C(c1ccc(Cl)cc1)N(C1CCC(N(C)CC3CCN(CCCCCCc4ccc5c(c4)n(C)c(=O)n5C4CCC(=O)NC4=O)CC3)CC1)C(=O)C2 (stereo not shown) [I-61] | > 1000 | > 500
CC1(C)CCC2(CC1)N[C@@H](C(=O)N[C@H]1CC[C@H](CN3CCN(CCCc4cccn5c(N6CCC(=O)NC6=O)cnc45)CC3)CC1)[C@H](c1ccnc(Cl)c1F)[C@]21C(=O)Nc2cc(Cl)ccc21 [I-67] | < 10 | 5 to 50
CN1[C@@H](C(=O)N[C@H]2CC[C@H](CN3CCC(c4ccc5c(c4)n(C)c(=O)n5C4CCC(=O)NC4=O)CC3)CC2)[C@H](c2ccnc(Cl)c2F)[C@]2(C(=O)Nc3cc(Cl)ccc32)C12CCC(C)(C)CC2 (stereo partly shown) [I-14] | < 10 | < 5
COc1cc2c(cc1OC(C)C)[C@H](c1ccc(Cl)cc1)N(c1ccc(N(C)CC3CCN(CCCc4ccc5c(c4)n(C)c(=O)n5C4CCC(=O)NC4=O)CC3)cc1)C(=O)C2 (stereo partly shown) [I-53] | 10 to 100 | < 5
Cn1c(=O)n(C2CCC(=O)NC2=O)c2ccc(CCN3CCN(C(=O)[C@@H]4CC[C@@H](NC(=O)[C@@H]5NC6(CCCCC6)[C@@]6(C(=O)Nc7cc(Cl)ccc76)[C@H]5c5cccc(Cl)c5F)CO4)CC3)cc21 (stereo partly shown) [I-41] | < 10 | < 5
Cc1ccc2c(c1)NC(=O)[C@]21[C@@H](c2cccc(Cl)c2F)[C@H](C(=O)N[C@H]2CC[C@H](C(=O)N3CCN(CCCc4ccc5c(c4)n(C)c(=O)n5C4CCC(=O)NC4=O)CC3)CC2)NC12CCCCC2 (stereo partly shown) [I-57] | < 10 | < 5
CN(CCc1ccc2c(c1)n(C)c(=O)n2C1CCC(=O)NC1=O)CCN(C)C(=O)[C@H]1CC[C@H](NC(=O)[C@@H]2NC3(CCCCC3)[C@@]3(C(=O)Nc4cc(Cl)ccc43)[C@H]2c2cccc(Cl)c2F)CC1 (stereo partly shown) [I-89] | < 10 | 5 to 50
Cn1c(=O)n(C2CCC(=O)NC2=O)c2ccc(CN3CCC(OC4CN(C[C@H]5CC[C@H](NC(=O)[C@@H]6NC7(CCCCC7)[C@@]7(C(=O)Nc8cc(Cl)ccc87)[C@H]6c6cccc(Cl)c6F)CC5)C4)CC3)cc21 (stereo partly shown) [I-49] | < 10 | 5 to 50
Cn1c(=O)n(C2CCC(=O)NC2=O)c2ccc(CCN3CCN(CCCN4CCC(NC(=O)[C@@H]5NC6(CCCCC6)[C@@]6(C(=O)Nc7cc(Cl)ccc76)[C@H]5c5cccc(Cl)c5F)CC4)CC3)cc21 (stereo partly shown) [I-78] | < 10 | < 5
COc1cc2c(cc1OC(C)C)[C@H](c1ccc(Cl)cc1)N(c1ccc(N(C)C[C@H]3CC[C@H](c4ccc5c(c4)n(C)c(=O)n5C4CCC(=O)NC4=O)CC3)cc1)C(=O)C2 (stereo partly shown) [I-74] | < 10 | 5 to 50
Cn1c(=O)n(C2CCC(=O)NC2=O)c2ccc(C3CCN(C[C@H]4CC[C@H](NC(=O)[C@@H]5NC6(CCCCC6)[C@@]6(C(=O)Nc7cc(Cl)ccc76)[C@H]5c5cccc(Cl)c5F)CC4)CC3(F)F)cc21 (stereo partly shown) [I-52] | < 10 | < 5
COc1cc2c(cc1OC(C)C)[C@H](c1ccc(Cl)cc1)N(c1ccc(N(C)CC3CCN(CCCCc4ccc5c(c4)n(C)c(=O)n5C4CCC(=O)NC4=O)CC3)cc1)C(=O)C2 (stereo partly shown) [I-4] | 10 to 100 | < 5
CC1(C)CCC2(CC1)NC(C(=O)N[C@H]1CC[C@H](CN3CCN(CCC#Cc4ccn5c(N6CCC(=O)NC6=O)cnc5c4)CC3)CC1)[C@H](c1ccnc(Cl)c1F)[C@]21C(=O)Nc2cc(Cl)ccc21 (stereo partly shown) [I-7] | < 10 | 5 to 50
Cn1c(=O)n(C2CCC(=O)NC2=O)c2ccc(CCCN3CCN(C[C@H]4CC[C@H](NC(=O)[C@@H]5NC6(CCC(C)(C)CC6)[C@@]6(C(=O)Nc7cc(Cl)ccc76)[C@H]5c5ccnc(Cl)c5F)CC4)C(=O)C3)cc21 (stereo partly shown) [I-56] | < 10 | < 5
COc1cc2c(cc1OC(C)C)[C@H](c1ccc(Cl)cc1)N(c1ccc(N(C)C[C@H]3CC[C@H](N4CCC(c5ccc6c(c5)n(C)c(=O)n6C5CCC(=O)NC5=O)CC4)CC3)cc1)C(=O)C2 (stereo partly shown) [I-73] | < 10 | < 5
Cn1c(=O)n(C2CCC(=O)NC2=O)c2ccc(CN3CC(OC4CCN(C[C@H]5CC[C@H](NC(=O)[C@@H]6NC7(CCCCC7)[C@@]7(C(=O)Nc8cc(Cl)ccc87)[C@H]6c6cccc(Cl)c6F)CC5)CC4)C3)cc21 (stereo partly drawn) [I-47, (3′R,4′S,5′S)-6″-chloro-4′-(3-chloro-2-fluorophenyl)-N-((1r,4S)-4-((4-((1-((1-(2,6-dioxopiperidin-3-yl)-3-methyl-2-oxo-2,3-dihydro-1H-benzo[d]imidazol-5-yl)methyl)azetidin-3-yl)oxy)piperidin-1-yl)methyl)cyclohexyl)-2″-oxodispiro[cyclohexane-1,2′-pyrrolidine-3′,3″-indoline]-5′-carboxamide] | < 10 | < 5
